From patent US8263598B2, “Substituted sulfonamide compounds” (Gruenenthal GmbH, priority 2008, dated 2012) come the findings set out here.

For test [1], the target named is T1, human B1R receptor (hB1R) (Homo sapiens, UniProt P46663).
T1 construct: host or cells: CHO K1 cells
T1 sequence (P46663 1-353): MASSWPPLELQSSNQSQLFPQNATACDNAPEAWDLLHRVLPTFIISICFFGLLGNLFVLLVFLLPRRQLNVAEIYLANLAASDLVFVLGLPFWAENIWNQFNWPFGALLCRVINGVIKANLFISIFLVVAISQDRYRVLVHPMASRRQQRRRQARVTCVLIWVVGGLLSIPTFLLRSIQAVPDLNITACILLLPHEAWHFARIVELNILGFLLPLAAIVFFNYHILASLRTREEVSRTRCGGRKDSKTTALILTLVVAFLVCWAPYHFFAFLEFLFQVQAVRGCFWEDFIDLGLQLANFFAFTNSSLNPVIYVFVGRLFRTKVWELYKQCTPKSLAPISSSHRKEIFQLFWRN
In words: FLIPR Ca2+ assay on human bradykinin 1 receptor (CHO K1 hB1R cells). Type of test: cell-based. To be noted: test substance 10 μM; CHO K1 cells with human B1R gene; agonist Lys-Des-Arg9-bradykinin 0.5 nM; compared to maximum achievable inhibition. The procedure, abridged:
(§1)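 Values are percent inhibition of agonist-evoked Ca²⁺ influx, measured by Fluo-4 fluorescence peak in FLIPR relative to maximum achievable inhibition. Compound at 10 μM was preincubated 10 min on B1R-transfected CHO K1 cells before challenge with 0.5 nM Lys-Des-Arg9-bradykinin (human) or 100 nM Des-Arg9-bradykinin (rat).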

Test [2] deals with T2, B1R receptor of rats (rB1R) (Rattus norvegicus, UniProt P97583).
T2 construct: host or cells: CHO K1 cells
T2 sequence (P97583 1-337): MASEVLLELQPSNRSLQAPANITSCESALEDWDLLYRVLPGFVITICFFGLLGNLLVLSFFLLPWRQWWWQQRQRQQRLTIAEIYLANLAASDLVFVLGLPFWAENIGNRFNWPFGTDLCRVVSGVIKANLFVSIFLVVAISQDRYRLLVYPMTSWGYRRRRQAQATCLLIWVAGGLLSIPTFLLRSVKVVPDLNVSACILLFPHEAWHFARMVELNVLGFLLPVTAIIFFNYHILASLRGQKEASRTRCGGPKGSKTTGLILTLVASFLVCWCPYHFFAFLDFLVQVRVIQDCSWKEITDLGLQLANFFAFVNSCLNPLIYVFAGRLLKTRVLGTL
In words: FLIPR Ca2+ assay on rat bradykinin 1 receptor (CHO K1 rB1R cells). Type of test: cell-based. Particulars: test substance 10 μM; CHO K1 cells with B1R gene of rats; agonist Des-Arg9-bradykinin 100 nM; compared to maximum achievable inhibition. The procedure, abridged:
as §1

SMILES strings stand for the structures.

The inhibition is the drop in the measured response relative to a control, in per cent. In the case of `COc1c(C)cc(S(=O)(=O)N(C)CCOCC(=O)N2CCn3cccc3C2C(C)(C)C)c(C)c1C` (stereo not shown) [Example 27, N-(2-(2-(1-tert-butyl-3,4-dihydropyrrolo[1,2-a]pyrazin-2(1H)-yl)-2-oxoethoxy)ethyl)-4-methoxy-N,2,3,5-tetramethylbenzenesulfonamide], the values for the inhibition at 10 µM in test [1] and in test [2] were 95% and 98%, respectively.

Take `COc1cc(C)c(S(=O)(=O)N(CCOCC(=O)N2CCn3c(CN(C)C)ccc3C2Cc2ccccc2)Cc2ccccc2)c(C)c1C` (stereo not shown) [Example 118, N-benzyl-N-(2-(2-(1-benzyl-6-((dimethylamino)methyl)-3,4-dihydropyrrolo[1,2-a]pyrazin-2(1H)-yl)-2-oxoethoxy)ethyl)-4-methoxy-2,3,6-trimethylbenzene-sulfonamide]: the inhibition at 10 µM in test [1] and in test [2] was 96% in each case.

As for `Cc1cc(C)c(S(=O)(=O)N(C)CCOCC(=O)N2CCn3cccc3C2c2ccc(Cl)nc2)c(C)c1` (stereo not shown) [Example 68, N-(2-(2-(1-(6-chloropyridin-3-yl)-3,4-dihydropyrrolo[1,2-a]pyrazin-2(1H)-yl)-2-oxoethoxy)ethyl)-N,2,4,6-tetramethylbenzenesulfonamide], the inhibition at 10 µM was found to be 101% in test [1] and 100% in test [2].

As to `COc1cc(C)c(S(=O)(=O)N(CCOCC(=O)N2CCn3cccc3C2c2cccnc2)Cc2ccccc2)c(C)c1C` (stereo not shown) [Example 41, N-benzyl-4-methoxy-2,3,6-trimethyl-N-(2-(2-oxo-2-(1-(pyridin-3-yl)-3,4-dihydropyrrolo[1,2-a]pyrazin-2(1H)-yl)ethoxy)ethyl)benzenesulfonamide], the results for the inhibition at 10 µM in test [1] and in test [2] were 57% and 96%, respectively.

Turning to `CCCCC1c2ccc(CN(C)C)n2CCN1C(=O)COCCN(C)S(=O)(=O)c1c(C)cc(OC)cc1C` (stereo not shown) [Example 134, N-(2-(2-(1-butyl-6-((dimethylamino)methyl)-3,4-dihydropyrrolo[1,2-a]pyrazin-2(1H)-yl)-2-oxoethoxy)ethyl)-4-methoxy-N,2,6-trimethylbenzenesulfonamide], the inhibition at 10 µM came to 104% in test [1] and 103% in test [2].

Turning to `CCC1c2cccn2CCN1C(=O)C[C@@H](NS(=O)(=O)c1ccc2ccccc2c1)c1ccccc1` (stereo partly drawn) [Example 162, N-((1R)-3-(1-Ethyl-3,4-dihydropyrrolo[1,2-a]pyrazin-2(1H)-yl)-3-oxo-1-phenylpropyl)naphthalene-2-sulfonamide], the values for the inhibition at 10 µM in test [1] and in test [2] were 57% and 98%, respectively.

Regarding `COc1cc(C)c(S(=O)(=O)N(C)CCOCC(=O)N2CCn3cccc3C2c2cccc(F)c2)c(C)c1C` (stereo not shown) [Example 87, N-(2-(2-(1-(3-fluorophenyl)-3,4-dihydropyrrolo[1,2-a]pyrazin-2(1H)-yl)-2-oxoethoxy)ethyl)-4-methoxy-N,2,3,6-tetramethylbenzenesulfonamide], the inhibition at 10 µM in test [1] came to 101%; in test [2], 100%.

Take `CCC1c2ccc(CN(C)C)n2CCN1C(=O)COCCN(CC(C)C)S(=O)(=O)c1c(C)cc(OC)c(C)c1C` (stereo not shown) [Example 99, N-(2-(2-(6-((dimethylamino)methyl)-1-ethyl-3,4-dihydropyrrolo[1,2-a]pyrazin-2(1H)-yl)-2-oxoethoxy)ethyl)-N-isobutyl-4-methoxy-2,3,6-trimethylbenzene-sulfonamide]: the inhibition at 10 µM in test [1] amounted to 102%; in test [2], 101%.

With `Cc1cc(C)c(S(=O)(=O)N(C)CCOCC(=O)N2CCn3c(CN(C)C)ccc3C2c2cccs2)c(C)c1` (stereo not shown) [Example 144, N-(2-(2-(6-((dimethylamino)methyl)-1-(thiophen-2-yl)-3,4-dihydropyrrolo[1,2-a]pyrazin-2(1H)-yl)-2-oxoethoxy)ethyl)-N,2,4,6-tetramethylbenzenesulfonamide], the inhibition at 10 µM in test [1] and in test [2] was 104% throughout.

As to `COc1cc(C)c(S(=O)(=O)N(C)CCOCC(=O)N2CCn3cc(-c4ccncc4)nc3C2)c(C)c1` [Example 175, 4-Methoxy-N,2,6-trimethyl-N-(2-(2-oxo-2-(2-(pyridin-4-yl)-5,6-dihydroimidazo[1,2-a]pyrazin-7(8H)-yl)ethoxy)ethyl)benzenesulfonamide], the inhibition at 10 µM in test [1] was 100%; in test [2] it was 102%.

Turning to `COc1c(C)cc(S(=O)(=O)N(C)CCOCC(=O)N2CCn3cccc3C2c2ccc(C(F)(F)F)cc2F)c(C)c1C` (stereo not shown) [Example 39, N-(2-(2-(1-(2-fluoro-4-(trifluoromethyl)phenyl)-3,4-dihydropyrrolo[1,2-a]pyrazin-2(1H)-yl)-2-oxoethoxy)ethyl)-4-methoxy-N,2,3,5-tetramethyl-benzenesulfonamide], the inhibition at 10 µM in test [1] is 35%; in test [2] it was 80%.

For the molecule `COc1cc(C)c(S(=O)(=O)N(CCOCC(=O)N2CCn3ccnc3C2)CC(C)C)c(C)c1C` [Example 21, N-(2-(2-(5,6-dihydroimidazo[1,2-a]pyrazin-7(8H)-yl)-2-oxoethoxy)ethyl)-N-isobutyl-4-methoxy-2,3,6-trimethylbenzenesulfonamide], the inhibition at 10 µM in test [1] amounted to 31%; in test [2] it was 100%.

Regarding `CCCC1c2cccn2CCN1C(=O)COCCN(C)S(=O)(=O)c1cc(C)c(OC)c(C)c1C` (stereo not shown) [Example 115, 4-methoxy-N,2,3,5-tetramethyl-N-(2-(2-oxo-2-(1-propyl-3,4-dihydropyrrolo[1,2-a]pyrazin-2(1H)-yl)ethoxy)ethyl)benzenesulfonamide], the inhibition at 10 µM in test [1] was found to be 91%; in test [2], 97%.

Consider `COc1cc(C)c(S(=O)(=O)N(CCOCC(=O)N2CCn3c(CN(C)C)ccc3C2c2cccs2)Cc2ccccc2)c(C)c1` (stereo not shown) [Example 130, N-benzyl-N-(2-(2-(6-((dimethylamino)methyl)-1-(thiophen-2-yl)-3,4-dihydropyrrolo[1,2-a]pyrazin-2(1H)-yl)-2-oxoethoxy)ethyl)-4-methoxy-2,6-dimethyl-benzenesulfonamide], for which the results for the inhibition at 10 µM in test [1] and in test [2] were 104% and 102%, respectively.

In the case of `CCC1c2cccn2CCN1C(=O)COCCN(C)S(=O)(=O)c1cc(C)c(OC)c(C)c1C` (stereo not shown) [Example 114, N-(2-(2-(1-ethyl-3,4-dihydropyrrolo[1,2-a]pyrazin-2(1H)-yl)-2-oxoethoxy)ethyl)-4-methoxy-N,2,3,5-tetramethylbenzenesulfonamide], the results for the inhibition at 10 µM in test [1] and in test [2] were 80% and 42%, respectively.

Consider `CCCC1c2cccn2CCN1C(=O)COCCN(C)S(=O)(=O)c1c(C)cc(OC)cc1C` (stereo not shown) [Example 136, 4-methoxy-N,2,6-trimethyl-N-(2-(2-oxo-2-(1-propyl-3,4-dihydropyrrolo[1,2-a]-pyrazin-2(1H)-yl)ethoxy)ethyl)benzenesulfonamide], for which the figures for the inhibition at 10 µM in test [1] and in test [2] were 104% and 103%, respectively.

With `COc1cc(C)c(S(=O)(=O)N(C)CCOCC(=O)N2CCn3c(CCCN4CCN(C)CC4)ccc3C2)c(C)c1` [Example 12, 4-methoxy-N,2,6-trimethyl-N-(2-(2-(6-(3-(4-methylpiperazin-1-yl)propyl)-3,4-dihydropyrrolo[1,2-a]pyrazin-2(1H)-yl)-2-oxoethoxy)ethyl)benzenesulfonamide], the inhibition at 10 µM was found to be 97% in test [1] and 100% in test [2].

As to `O=C(CC(NS(=O)(=O)c1ccc2ccccc2c1)c1ccccc1)N1CCn2c(Cc3ccncc3)ccc2C1` (stereo not shown) [Example 169, N-(3-Oxo-1-phenyl-3-(6-(pyridin-4-ylmethyl)-3,4-dihydropyrrolo[1,2-a]pyrazin-2(1H)-yl)propyl)naphthalene-2-sulfonamide], the inhibition at 10 µM is 78% in test [1] and 98% in test [2].

`COc1cc(C)c(S(=O)(=O)N(C)CCOCC(=O)N2CCn3cccc3C2c2cccs2)c(C)c1C` (stereo not shown) [Example 88, 4-methoxy-N,2,3,6-tetramethyl-N-(2-(2-oxo-2-(1-(thiophen-2-yl)-3,4-dihydropyrrolo[1,2-a]pyrazin-2(1H)-yl)ethoxy)ethyl)benzenesulfonamide]: the inhibition at 10 µM in test [1] came to 101%; in test [2], 98%.

Consider `O=C(CC(NS(=O)(=O)c1ccc2ccccc2c1)c1ccccc1)N1CCn2c(CN3CCOCC3)ccc2C1` (stereo not shown) [Example 10, N-(3-(6-(morpholinomethyl)-3,4-dihydropyrrolo[1,2-a]pyrazin-2(1H)-yl)-3-oxo-1-phenylpropyl)naphthalene-2-sulfonamide], for which the inhibition at 10 µM is 97% in test [1] and 100% in test [2].
